Measurements as given in patent US20080009418A1, “Selective Inhibitors” (Alchemia LTD., priority 2004, published 2008).

Key:
Details in all cases: compound at 10 μM
Human Melanocortin (MC3) = molecular target: T1, Human Melanocortin (MC3) (Homo sapiens, UniProt P41968); test: Radioligand binding, human melanocortin MC3 membranes, FlashPlate, [125I]-NDP-αMSH
T1 construct: purchased Perkin Elmer Biosignal
Procedure, shortened: (§1)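 Cloned human receptor membranes were coated onto FlashPlate wells and incubated with radioligand and compound (added from a 0.5 mM DMSO daughter plate) for 1 hour at room temperature in the dark. Scintillation counting gave percent inhibition, with DMSO defining total and reference ligand defining non-specific binding.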

Human μ-opioid (MOP) = molecular target: T2, Human μ-opioid (MOP) (Homo sapiens, UniProt P35372); test: Radioligand binding, human μ-opioid (MOP) membranes, FlashPlate, [3H]-Naloxone
T2 construct: purchased Perkin Elmer Biosignal
T2 sequence (P35372 whole entry): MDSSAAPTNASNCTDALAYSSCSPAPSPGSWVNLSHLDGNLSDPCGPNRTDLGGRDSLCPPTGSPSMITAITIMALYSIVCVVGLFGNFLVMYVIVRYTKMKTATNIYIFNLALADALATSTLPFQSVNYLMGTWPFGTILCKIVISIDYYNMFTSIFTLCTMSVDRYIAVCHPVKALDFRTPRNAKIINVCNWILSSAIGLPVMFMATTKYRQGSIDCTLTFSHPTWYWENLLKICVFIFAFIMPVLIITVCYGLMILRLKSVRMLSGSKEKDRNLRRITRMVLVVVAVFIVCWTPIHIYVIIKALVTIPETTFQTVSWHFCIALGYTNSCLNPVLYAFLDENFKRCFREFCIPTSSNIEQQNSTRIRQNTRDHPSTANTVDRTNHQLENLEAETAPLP
Procedure, shortened: as §1

[1] = molecular target: T3, Human melanin-concentrating hormone (MCH1) (Homo sapiens, UniProt Q99705); test: Radioligand binding, human melanin-concentrating hormone MCH1 membranes, FlashPlate, [125I]-S36057
T3 construct: purchased Perkin Elmer Biosignal
T3 sequence (Q99705 whole entry): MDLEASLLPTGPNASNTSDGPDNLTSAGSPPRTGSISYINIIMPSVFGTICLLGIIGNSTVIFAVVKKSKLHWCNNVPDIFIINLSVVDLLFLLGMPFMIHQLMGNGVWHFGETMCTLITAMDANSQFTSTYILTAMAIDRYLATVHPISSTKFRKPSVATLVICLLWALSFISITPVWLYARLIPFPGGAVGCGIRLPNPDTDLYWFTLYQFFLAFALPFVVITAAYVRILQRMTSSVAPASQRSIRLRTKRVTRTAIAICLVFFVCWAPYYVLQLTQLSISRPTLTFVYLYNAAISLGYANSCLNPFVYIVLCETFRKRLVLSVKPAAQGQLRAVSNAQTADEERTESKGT
Procedure, shortened: as §1

Human δ-opioid (DOP) = molecular target: T4, Human δ-opioid (DOP) (Homo sapiens, UniProt P41143); test: Radioligand binding, human δ-opioid (DOP) membranes, FlashPlate, [3H]-Bremazocine
T4 construct: purchased Perkin Elmer Biosignal
T4 sequence (P41143 whole entry): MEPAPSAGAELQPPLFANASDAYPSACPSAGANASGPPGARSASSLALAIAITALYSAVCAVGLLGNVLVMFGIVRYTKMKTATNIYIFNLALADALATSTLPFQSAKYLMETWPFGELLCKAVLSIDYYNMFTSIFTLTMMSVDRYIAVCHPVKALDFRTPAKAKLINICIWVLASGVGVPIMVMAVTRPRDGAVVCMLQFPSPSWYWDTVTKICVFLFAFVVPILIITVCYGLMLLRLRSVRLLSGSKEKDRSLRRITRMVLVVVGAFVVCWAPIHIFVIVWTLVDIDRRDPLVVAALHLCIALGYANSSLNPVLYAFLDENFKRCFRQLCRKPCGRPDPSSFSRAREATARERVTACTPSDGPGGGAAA
Procedure, shortened: as §1

Human melanocortin (MC5) = molecular target: T5, Human melanocortin (MC5) (Homo sapiens, UniProt P33032); test: Radioligand binding, human melanocortin MC5 membranes, FlashPlate, [125I]-NDP-αMSH
T5 construct: purchased Perkin Elmer Biosignal
T5 sequence (P33032 whole entry): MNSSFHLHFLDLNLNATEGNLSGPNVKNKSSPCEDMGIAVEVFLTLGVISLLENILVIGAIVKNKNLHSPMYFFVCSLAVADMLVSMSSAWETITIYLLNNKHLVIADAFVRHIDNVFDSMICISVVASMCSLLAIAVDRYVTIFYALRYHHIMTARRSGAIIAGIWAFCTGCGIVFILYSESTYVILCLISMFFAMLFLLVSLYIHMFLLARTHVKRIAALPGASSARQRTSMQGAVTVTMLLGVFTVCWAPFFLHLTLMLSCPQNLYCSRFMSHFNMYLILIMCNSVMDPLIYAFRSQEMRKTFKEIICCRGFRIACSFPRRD
Procedure, shortened: as §1

Human neurokinin (NK1) = molecular target: T6, Human neurokinin (NK1) (Homo sapiens, UniProt P25103); test: Radioligand binding, human neurokinin NK1 membranes, filtration, [125I]-Substance P
T6 construct: purchased Perkin Elmer Biosignal
T6 sequence (P25103 whole entry): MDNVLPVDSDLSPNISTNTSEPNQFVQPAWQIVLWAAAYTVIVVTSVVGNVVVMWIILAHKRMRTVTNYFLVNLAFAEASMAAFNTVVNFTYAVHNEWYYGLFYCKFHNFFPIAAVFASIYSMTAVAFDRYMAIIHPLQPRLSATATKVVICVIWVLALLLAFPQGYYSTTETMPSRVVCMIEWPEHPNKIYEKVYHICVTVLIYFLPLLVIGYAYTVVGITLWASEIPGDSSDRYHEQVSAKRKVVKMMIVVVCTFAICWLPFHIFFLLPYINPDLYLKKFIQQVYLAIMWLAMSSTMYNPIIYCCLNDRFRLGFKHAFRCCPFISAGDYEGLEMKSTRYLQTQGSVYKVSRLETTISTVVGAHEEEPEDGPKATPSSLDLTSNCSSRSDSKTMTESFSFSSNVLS
Procedure, shortened: (§2)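 Filtration binding on cloned human receptor membranes (1 Unit/well), [125I]-Substance P for NK1 and [3H]-Diprenorphine for KOP, 1 h at room temperature. Filters PEI-presoaked, washed with cold 50 mM Tris-HCl pH 7.4, counted by scintillation; percent inhibition calculated, reference ligand defining non-specific binding.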

Human Melanocortin (MC4) = molecular target: T7, Human Melanocortin (MC4) (Homo sapiens, UniProt P32245); test: Radioligand binding, human melanocortin MC4 membranes, FlashPlate, [125I]-NDP-αMSH
T7 construct: purchased Perkin Elmer Biosignal
T7 sequence (P32245 whole entry): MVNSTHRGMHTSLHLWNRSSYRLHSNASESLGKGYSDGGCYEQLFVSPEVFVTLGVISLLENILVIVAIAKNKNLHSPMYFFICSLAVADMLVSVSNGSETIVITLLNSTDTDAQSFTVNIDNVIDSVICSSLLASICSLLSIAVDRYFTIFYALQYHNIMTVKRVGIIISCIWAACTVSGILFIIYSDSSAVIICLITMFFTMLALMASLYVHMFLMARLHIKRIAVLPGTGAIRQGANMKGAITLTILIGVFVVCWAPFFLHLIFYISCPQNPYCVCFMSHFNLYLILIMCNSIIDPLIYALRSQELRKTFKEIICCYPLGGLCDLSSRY
Procedure, shortened: as §1

Human κ-Opioid (KOP) = molecular target: T8, Human κ-Opioid (KOP) (Homo sapiens, UniProt P41145); test: Radioligand binding, human κ-opioid (KOP) membranes, filtration, [3H]-Diprenorphine
T8 construct: purchased Perkin Elmer Biosignal
T8 sequence (P41145 whole entry): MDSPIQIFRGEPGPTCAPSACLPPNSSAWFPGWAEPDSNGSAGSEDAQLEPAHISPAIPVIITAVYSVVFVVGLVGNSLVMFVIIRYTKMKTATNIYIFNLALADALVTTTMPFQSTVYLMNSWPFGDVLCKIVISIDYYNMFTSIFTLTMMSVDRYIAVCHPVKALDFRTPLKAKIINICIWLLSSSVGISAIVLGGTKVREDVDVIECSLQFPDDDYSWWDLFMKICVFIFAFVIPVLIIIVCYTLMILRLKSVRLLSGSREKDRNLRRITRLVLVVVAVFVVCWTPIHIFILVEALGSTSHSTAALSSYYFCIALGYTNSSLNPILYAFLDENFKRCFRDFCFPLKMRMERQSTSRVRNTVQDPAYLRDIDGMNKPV
Procedure, shortened: as §2

Human opioid (ORL1) = molecular target: T9, Human opioid (ORL1) (Homo sapiens, UniProt P41146); test: Radioligand binding, human opioid ORL1 membranes, FlashPlate, [125I]-Nociceptin
T9 construct: purchased Perkin Elmer Biosignal
T9 sequence (P41146 whole entry): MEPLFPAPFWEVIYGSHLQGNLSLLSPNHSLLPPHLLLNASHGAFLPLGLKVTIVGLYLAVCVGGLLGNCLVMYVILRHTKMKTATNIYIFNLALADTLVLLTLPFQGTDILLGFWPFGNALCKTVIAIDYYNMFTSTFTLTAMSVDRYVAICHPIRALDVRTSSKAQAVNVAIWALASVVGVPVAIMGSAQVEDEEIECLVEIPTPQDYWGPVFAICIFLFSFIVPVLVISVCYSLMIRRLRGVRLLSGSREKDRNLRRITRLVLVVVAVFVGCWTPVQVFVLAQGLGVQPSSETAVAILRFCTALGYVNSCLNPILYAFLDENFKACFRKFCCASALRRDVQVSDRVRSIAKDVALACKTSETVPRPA
Procedure, shortened: as §1

[2] = molecular target: T10, Human neuropeptide Y (NPY-Y1) (Homo sapiens, UniProt P25929); test: Radioligand binding, human neuropeptide Y NPY-Y1 membranes, FlashPlate, [125I]-PYY
T10 construct: purchased Perkin Elmer Biosignal
T10 sequence (P25929 1-384): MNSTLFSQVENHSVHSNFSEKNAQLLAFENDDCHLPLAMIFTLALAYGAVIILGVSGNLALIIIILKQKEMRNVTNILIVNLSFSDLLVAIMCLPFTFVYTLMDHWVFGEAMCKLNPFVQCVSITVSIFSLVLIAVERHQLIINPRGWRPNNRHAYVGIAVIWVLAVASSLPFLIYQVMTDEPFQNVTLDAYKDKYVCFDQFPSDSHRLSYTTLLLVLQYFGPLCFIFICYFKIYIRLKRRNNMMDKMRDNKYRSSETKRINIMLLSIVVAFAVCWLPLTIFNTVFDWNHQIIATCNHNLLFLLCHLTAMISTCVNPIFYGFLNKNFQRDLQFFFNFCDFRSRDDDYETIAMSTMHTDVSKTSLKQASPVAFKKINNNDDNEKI
Procedure, shortened: as §1

Mouse urotensin (mUR2) = molecular target: T11, Mouse urotensin (mUR2) (Mus musculus, UniProt Q8VIH9); test: Radioligand binding, mouse urotensin mUR2 membranes, FlashPlate, [125I]-Urotensin II
T11 construct: purchased Perkin Elmer Biosignal
T11 sequence (Q8VIH9 1-385): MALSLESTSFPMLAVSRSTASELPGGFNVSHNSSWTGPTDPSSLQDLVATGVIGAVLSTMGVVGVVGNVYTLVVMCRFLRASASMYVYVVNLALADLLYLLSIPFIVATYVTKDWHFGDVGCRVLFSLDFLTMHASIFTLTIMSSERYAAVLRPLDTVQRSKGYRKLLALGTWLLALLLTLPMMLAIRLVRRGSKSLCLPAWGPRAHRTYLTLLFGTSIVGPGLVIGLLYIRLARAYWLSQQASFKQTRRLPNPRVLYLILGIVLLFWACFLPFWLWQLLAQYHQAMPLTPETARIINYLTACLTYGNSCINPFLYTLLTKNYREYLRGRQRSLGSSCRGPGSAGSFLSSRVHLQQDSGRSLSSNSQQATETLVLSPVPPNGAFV
Procedure, shortened: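 Cloned mouse urotensin (mUR2) receptor membranes from Perkin Elmer Biosignal were immobilized in FlashPlate microplates using a proprietary coating. Each well got 19.5 μl buffer, then 0.5 μl of DMSO, reference ligand, or compound. Adding 5 μl of [125I]-Urotensin II, diluted to 5× final concentration in binding buffer, started binding. Plates were sealed with TopSeal-A and incubated 1 hour at room temperature in the dark. Wells were counted for 30 seconds each on a TopCount after a 60-second delay, and percentage inhibition was calculated.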

T1 sequence (P41968 whole entry): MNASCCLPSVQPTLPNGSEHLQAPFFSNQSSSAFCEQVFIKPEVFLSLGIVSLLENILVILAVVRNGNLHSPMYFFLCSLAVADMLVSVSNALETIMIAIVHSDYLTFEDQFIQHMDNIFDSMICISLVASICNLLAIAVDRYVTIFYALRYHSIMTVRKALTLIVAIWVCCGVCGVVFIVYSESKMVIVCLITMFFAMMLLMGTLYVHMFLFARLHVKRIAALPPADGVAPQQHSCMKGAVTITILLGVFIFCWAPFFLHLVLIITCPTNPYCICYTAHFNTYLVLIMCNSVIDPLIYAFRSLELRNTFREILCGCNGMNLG

COCC1OC(OCc2ccc3ccccc3c2)C(NC(=O)CCNC(=N)N)C(OCc2ccccc2)C1O (stereo not shown) [compound 232]
A3: inhibition of radioligand binding (Human Melanocortin (MC3); [125I]-NDP-αMSH, FlashPlate): − (“−” indicates less than 50% inhibition at 10 μM) | A7: inhibition of radioligand binding (Human μ-opioid (MOP); [3H]-Naloxone, FlashPlate): − (“−” indicates less than 50% inhibition at 10 μM) | A6: inhibition of radioligand binding ([1]; [125I]-S36057, FlashPlate): − (“−” indicates less than 50% inhibition at 10 μM) | A1: inhibition of radioligand binding (Human δ-opioid (DOP); [3H]-Bremazocine, FlashPlate): − (“−” indicates less than 50% inhibition at 10 μM) | A5: inhibition of radioligand binding (Human melanocortin (MC5); [125I]-NDP-αMSH, FlashPlate): − (“−” indicates less than 50% inhibition at 10 μM) | A8: inhibition of radioligand binding (Human neurokinin (NK1); [125I]-Substance P, filtration): + (“+” indicates greater than 50% inhibition at 10 μM) | A4: inhibition of radioligand binding (Human Melanocortin (MC4); [125I]-NDP-αMSH, FlashPlate): − (“−” indicates less than 50% inhibition at 10 μM) | A2: inhibition of radioligand binding (Human κ-Opioid (KOP); [3H]-Diprenorphine, filtration): − (“−” indicates less than 50% inhibition at 10 μM) | A10: inhibition of radioligand binding (Human opioid (ORL1); [125I]-Nociceptin, FlashPlate): − (“−” indicates less than 50% inhibition at 10 μM) | A9: inhibition of radioligand binding ([2]; [125I]-PYY, FlashPlate): − (“−” indicates less than 50% inhibition at 10 μM) | A11: inhibition of radioligand binding (Mouse urotensin (mUR2); [125I]-Urotensin II, FlashPlate): − (“−” indicates less than 50% inhibition at 10 μM)

COCC1OC(OCc2ccccc2)C(NC(=O)CCCNC(=N)N)C(OCc2ccc(-c3ccccc3)cc2)C1O (stereo not shown) [compound 187]
A3 radioligand binding, percentage inhibition (Human Melanocortin (MC3); [125I]-NDP-αMSH): − (“−” indicates less than 50% inhibition at 10 μM) | A7 radioligand binding, percentage inhibition (Human μ-opioid (MOP); [3H]-Naloxone): − (“−” indicates less than 50% inhibition at 10 μM) | A6 radioligand binding, percentage inhibition ([1]; [125I]-S36057): + (“+” indicates greater than 50% inhibition at 10 μM) | A1 radioligand binding, percentage inhibition (Human δ-opioid (DOP); [3H]-Bremazocine): − (“−” indicates less than 50% inhibition at 10 μM) | A5 radioligand binding, percentage inhibition (Human melanocortin (MC5); [125I]-NDP-αMSH): + (“+” indicates greater than 50% inhibition at 10 μM) | A8 radioligand binding, percentage inhibition (Human neurokinin (NK1); [125I]-Substance P): + (“+” indicates greater than 50% inhibition at 10 μM) | A4 radioligand binding, percentage inhibition (Human Melanocortin (MC4); [125I]-NDP-αMSH): + (“+” indicates greater than 50% inhibition at 10 μM) | A2 radioligand binding, percentage inhibition (Human κ-Opioid (KOP); [3H]-Diprenorphine): − (“−” indicates less than 50% inhibition at 10 μM) | A10 radioligand binding, percentage inhibition (Human opioid (ORL1); [125I]-Nociceptin): − (“−” indicates less than 50% inhibition at 10 μM) | A9 radioligand binding, percentage inhibition ([2]; [125I]-PYY): − (“−” indicates less than 50% inhibition at 10 μM) | A11 radioligand binding, percentage inhibition (Mouse urotensin (mUR2); [125I]-Urotensin II): − (“−” indicates less than 50% inhibition at 10 μM)

CO[C@H]1[C@H](O)[C@@H](COCc2ccc3ccccc3c2)OC(OCc2ccc3ccccc3c2)[C@@H]1NC(=O)CCNC(=N)N (stereo partly shown) [compound 71]
A3 radioligand binding inhibition (Human Melanocortin (MC3); human melanocortin MC3 membranes): + (“+” indicates greater than 50% inhibition at 10 μM) | A7 radioligand binding inhibition (Human μ-opioid (MOP); human μ-opioid (MOP) membranes): + (“+” indicates greater than 50% inhibition at 10 μM) | A6 radioligand binding inhibition ([1]; human MCH1 membranes): + (“+” indicates greater than 50% inhibition at 10 μM) | A1 radioligand binding inhibition (Human δ-opioid (DOP); human δ-opioid (DOP) membranes): − (“−” indicates less than 50% inhibition at 10 μM) | A5 radioligand binding inhibition (Human melanocortin (MC5); human melanocortin MC5 membranes): + (“+” indicates greater than 50% inhibition at 10 μM) | A8 radioligand binding inhibition (Human neurokinin (NK1); human neurokinin NK1 membranes): + (“+” indicates greater than 50% inhibition at 10 μM) | A4 radioligand binding inhibition (Human Melanocortin (MC4); human melanocortin MC4 membranes): + (“+” indicates greater than 50% inhibition at 10 μM) | A2 radioligand binding inhibition (Human κ-Opioid (KOP); human κ-opioid (KOP) membranes): + (“+” indicates greater than 50% inhibition at 10 μM) | A10 radioligand binding inhibition (Human opioid (ORL1); human ORL1 membranes): + (“+” indicates greater than 50% inhibition at 10 μM) | A9 radioligand binding inhibition ([2]; human NPY-Y1 membranes): − (“−” indicates less than 50% inhibition at 10 μM) | A11 radioligand binding inhibition (Mouse urotensin (mUR2); mouse urotensin mUR2 membranes): − (“−” indicates less than 50% inhibition at 10 μM)

O=C(N[C@H]1C(NC(=O)C2CCNCC2)O[C@H](CO)[C@@H](O)[C@@H]1OCc1cccc2ccccc12)c1ccccc1 (stereo partly shown) [compound 363]
A3: inhibition of radioligand binding, human melanocortin (MC3) (Human Melanocortin (MC3); [125I]-NDP-αMSH): − (“−” indicates less than 50% inhibition at 10 μM) | A7: inhibition of radioligand binding, human μ-opioid (MOP) (Human μ-opioid (MOP); [3H]-Naloxone): − (“−” indicates less than 50% inhibition at 10 μM) | A6: inhibition of radioligand binding, human melanin-concentrating hormone (MCH1) ([1]; [125I]-S36057): − (“−” indicates less than 50% inhibition at 10 μM) | A1: inhibition of radioligand binding, human δ-opioid (DOP) (Human δ-opioid (DOP); [3H]-Bremazocine): − (“−” indicates less than 50% inhibition at 10 μM) | A5: inhibition of radioligand binding, human melanocortin (MC5) (Human melanocortin (MC5); [125I]-NDP-αMSH): − (“−” indicates less than 50% inhibition at 10 μM) | A8: inhibition of radioligand binding, human neurokinin (NK1) (Human neurokinin (NK1); [125I]-Substance P): + (“+” indicates greater than 50% inhibition at 10 μM) | A4: inhibition of radioligand binding, human melanocortin (MC4) (Human Melanocortin (MC4); [125I]-NDP-αMSH): − (“−” indicates less than 50% inhibition at 10 μM) | A2: inhibition of radioligand binding, human κ-opioid (KOP) (Human κ-Opioid (KOP); [3H]-Diprenorphine): − (“−” indicates less than 50% inhibition at 10 μM) | A10: inhibition of radioligand binding, human opioid (ORL1) (Human opioid (ORL1); [125I]-Nociceptin): − (“−” indicates less than 50% inhibition at 10 μM) | A9: inhibition of radioligand binding, human neuropeptide Y (NPY-Y1) ([2]; [125I]-PYY): − (“−” indicates less than 50% inhibition at 10 μM) | A11: inhibition of radioligand binding, mouse urotensin (mUR2) (Mouse urotensin (mUR2); [125I]-Urotensin II): − (“−” indicates less than 50% inhibition at 10 μM)

CSC1O[C@H](COCc2ccc(-c3ccccc3)cc2)[C@@H](O)[C@@H](OCc2ccc(-c3ccccc3)cc2)[C@H]1NC(=O)CCNC(=N)N (stereo partly shown) [compound 293]
A3: inhibition of radioligand binding, human melanocortin (MC3) (Human Melanocortin (MC3); [125I]-NDP-αMSH): − (“−” indicates less than 50% inhibition at 10 μM) | A7: inhibition of radioligand binding, human μ-opioid (MOP) (Human μ-opioid (MOP); [3H]-Naloxone): − (“−” indicates less than 50% inhibition at 10 μM) | A6: inhibition of radioligand binding, human melanin-concentrating hormone (MCH1) ([1]; [125I]-S36057): − (“−” indicates less than 50% inhibition at 10 μM) | A1: inhibition of radioligand binding, human δ-opioid (DOP) (Human δ-opioid (DOP); [3H]-Bremazocine): − (“−” indicates less than 50% inhibition at 10 μM) | A5: inhibition of radioligand binding, human melanocortin (MC5) (Human melanocortin (MC5); [125I]-NDP-αMSH): − (“−” indicates less than 50% inhibition at 10 μM) | A8: inhibition of radioligand binding, human neurokinin (NK1) (Human neurokinin (NK1); [125I]-Substance P): + (“+” indicates greater than 50% inhibition at 10 μM) | A4: inhibition of radioligand binding, human melanocortin (MC4) (Human Melanocortin (MC4); [125I]-NDP-αMSH): − (“−” indicates less than 50% inhibition at 10 μM) | A2: inhibition of radioligand binding, human κ-opioid (KOP) (Human κ-Opioid (KOP); [3H]-Diprenorphine): − (“−” indicates less than 50% inhibition at 10 μM) | A10: inhibition of radioligand binding, human opioid (ORL1) (Human opioid (ORL1); [125I]-Nociceptin): − (“−” indicates less than 50% inhibition at 10 μM) | A9: inhibition of radioligand binding, human neuropeptide Y (NPY-Y1) ([2]; [125I]-PYY): − (“−” indicates less than 50% inhibition at 10 μM) | A11: inhibition of radioligand binding, mouse urotensin (mUR2) (Mouse urotensin (mUR2); [125I]-Urotensin II): − (“−” indicates less than 50% inhibition at 10 μM)
